These results are taken from US10988445B2 (AstraZeneca AB, priority 2015, dated 2021).

The test system of this assay is human TH17 cells. Put plainly: Inhibition of IL-17 release from human TH17 cells. The format is cell-based. Particulars: Homo sapiens, 96 h, isolated human TH17 cells, 4 days culture, IL-17A by HTRF; read-out: pIC50 IL-17 release (converted). A digest of the protocol:
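TH17 cells (CD4+CXCR3-CCR6+) enriched from healthy-donor PBMC isolated from heparinized whole blood. Supernatants collected on day 4; IL-17A quantified by HTRF.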
(TR-FRET usually uses a lanthanide donor and a delayed reading to cut background.)

With `CS(=O)(=O)c1ccc2c(c1)CN(C(=O)NC1CC1)C2C(=O)Nc1ccc(C(O)(C(F)(F)F)C(F)(F)F)cc1` (stereo not drawn) [Example 456, N^2—Cyclopropyl-N^1-[4-(1,1,1,3,3,3-hexafluoro-2-hydroxypropan-2-yl)phenyl]-5-(methylsulfonyl)-1,3-dihydro-2H-isoindole-1,2-dicarboxamide], the IC50 was 12.6 nM.

For `COC(=O)N1Cc2cc(S(=O)(=O)C3CC3)ccc2C1C(=O)Nc1ccc(C(O)(C(F)(F)F)C(F)(F)F)cc1` (stereo not drawn) [Example 602, Methyl 5-(cyclopropylsulfonyl)-1-{[4-(1,1,1,3,3,3-hexafluoro-2-hydroxypropan-2-yl)phenyl]carbamoyl}-1,3-dihydro-2H-isoindole-2-carboxylate], the IC50 was 25.1 nM.

Take `O=CN1Cc2cc(S(=O)(=O)C3CC3)ccc2C1C(=O)Nc1ccc(C(O)(C(F)(F)F)C(F)(F)F)cc1` (stereo not drawn) [Example 604, 5-(Cyclopropylsulfonyl)-2-formyl-N-[4-(1,1,1,3,3,3-hexafluoro-2-hydroxypropan-2-yl)phenyl]-2,3-dihydro-1H-isoindole-1-carboxamide]: the IC50 is 50.1 nM.

Take `COCC(=O)N1Cc2cc(S(=O)(=O)C3CC3)ccc2C1C(=O)Nc1ccc(C(O)(C(F)(F)F)C(F)(F)F)cc1` (stereo not drawn) [Example 606, 5-(Cyclopropylsulfonyl)-N-[4-(1,1,1,3,3,3-hexafluoro-2-hydroxypropan-2-yl)phenyl]-2-(methoxyacetyl)-2,3-dihydro-1H-isoindole-1-carboxamide]: the IC50 was 31.6 nM.

Regarding `N#CC1(C(=O)N2Cc3cc(S(=O)(=O)C4CC4)ccc3C2C(=O)Nc2ccc(C(O)(C(F)(F)F)C(F)(F)F)cc2)CC1` (stereo not drawn) [Example 607, 2-[(1-Cyanocyclopropyl)carbonyl]-5-(cyclopropylsulfonyl)-N-[4-(1,1,1,3,3,3-hexafluoro-2-hydroxypropan-2-yl)phenyl]-2,3-dihydro-1H-isoindole-1-carboxamide], the IC50 was 39.8 nM.

`O=C(Nc1ccc(C(O)(C(F)(F)F)C(F)(F)F)cc1)C1c2ccc(S(=O)(=O)C3CC3)cc2CN1C(=O)[C@@H]1CCCO1` (stereo partly drawn) [Example 608, 5-(Cyclopropylsulfonyl)-N-[4-(1,1,1,3,3,3-hexafluoro-2-hydroxypropan-2-yl)phenyl]-2-[(2S)-tetrahydrofuran-2-ylcarbonyl]-2,3-dihydro-1H-isoindole-1-carboxamide]: the IC50 was 39.8 nM.

Turning to `O=C(Nc1ccc(C(O)(C(F)(F)F)C(F)(F)F)cc1)C1c2ccc(S(=O)(=O)C3CC3)cc2CN1C(=O)[C@H]1CCCO1` (stereo partly drawn) [Example 609, 5-(Cyclopropylsulfonyl)-N-[4-(1,1,1,3,3,3-hexafluoro-2-hydroxypropan-2-yl)phenyl]-2-[(2R)-tetrahydrofuran-2-ylcarbonyl]-2,3-dihydro-1H-isoindole-1-carboxamide], the IC50 is 50.1 nM.

In the case of `CNC(=O)N1Cc2cc(S(=O)(=O)C3CC3)ccc2C1C(=O)Nc1ccc(C(O)(C(F)(F)F)C(F)(F)F)cc1` (stereo not drawn) [Example 610], the IC50 is 63.1 nM.

In the case of `COCCS(=O)(=O)c1ccc2c(c1)CNC2C(=O)Nc1ccc(C(O)(C(F)(F)F)C(F)(F)F)cc1` (stereo not drawn) [Example 700, N-(4-(1,1,1,3,3,3-hexafluoro-2-hydroxypropan-2-yl)phenyl)-5-((2-methoxyethyl)sulfonyl)isoindoline-1-carboxamide], the IC50 was 100 nM.

Consider `COCCS(=O)(=O)c1ccc2c(c1)CN(C=O)C2C(=O)Nc1ccc(C(O)(C(F)(F)F)C(F)(F)F)cc1` (stereo not drawn) [Example 701, 2-Formyl-N-[4-(1,1,1,3,3,3-hexafluoro-2-hydroxypropan-2-yl)phenyl]-5-[(2-methoxyethyl)sulfonyl]-2,3-dihydro-1H-isoindole-1-carboxamide], for which the IC50 is 15.8 nM.

With `COCCS(=O)(=O)c1ccc2c(c1)CN(C(=O)C1(OC)CC1)C2C(=O)Nc1ccc(C(O)(C(F)(F)F)C(F)(F)F)cc1` (stereo not drawn) [Example 703, N-[4-(1,1,1,3,3,3-hexafluoro-2-hydroxypropan-2-yl)phenyl]-2-[(1-methoxycyclopropyl)carbonyl]-5-[(2-methoxyethyl)sulfonyl]-2,3-dihydro-1H-isoindole-1-carboxamide], the IC50 is 25.1 nM.

In the case of `COCCS(=O)(=O)c1ccc2c(c1)CN(C(=O)OC)C2C(=O)Nc1ccc(C(O)(C(F)(F)F)C(F)(F)F)cc1` (stereo not drawn) [Example 704, Methyl 1-{[4-(1,1,1,3,3,3-hexafluoro-2-hydroxypropan-2-yl)phenyl]carbamoyl}-5-[(2-methoxyethyl)sulfonyl]-1,3-dihydro-2H-isoindole-2-carboxylate], the IC50 is 25.1 nM.

Regarding `COCCS(=O)(=O)c1ccc2c(c1)CN(C(=O)CO)C2C(=O)Nc1ccc(C(O)(C(F)(F)F)C(F)(F)F)cc1` (stereo not drawn) [Example 705, N-[4-(1,1,1,3,3,3-Hexafluoro-2-hydroxypropan-2-yl)phenyl]-2-(hydroxyacetyl)-5-[(2-methoxyethyl)sulfonyl]-2,3-dihydro-1H-isoindole-1-carboxamide], the IC50 is 100 nM.

For the compound `COCCS(=O)(=O)c1ccc2c(c1)CN(C(=O)COC)C2C(=O)Nc1ccc(C(O)(C(F)(F)F)C(F)(F)F)cc1` (stereo not drawn) [Example 706, N-[4-(1,1,1,3,3,3-Hexafluoro-2-hydroxypropan-2-yl)phenyl]-2-(methoxyacetyl)-5-[(2-methoxyethyl)sulfonyl]-2,3-dihydro-1H-isoindole-1-carboxamide], the IC50 is 50.1 nM.

Take `CNC(=O)N1Cc2cc(S(=O)(=O)CCOC)ccc2C1C(=O)Nc1ccc(C(O)(C(F)(F)F)C(F)(F)F)cc1` (stereo not drawn) [Example 707]: the IC50 is 50.1 nM.

Turning to `COC1(C(=O)N2Cc3cc(S(=O)(=O)CCO)ccc3C2C(=O)Nc2ccc(C(O)(C(F)(F)F)C(F)(F)F)cc2)CC1` (stereo not drawn) [Example 802, N-[4-(1,1,1,3,3,3-Hexafluoro-2-hydroxypropan-2-yl)phenyl]-5-[(2-hydroxyethyl)sulfonyl]-2-[(1-methoxycyclopropyl)carbonyl]-2,3-dihydro-1H-isoindole-1-carboxamide], the IC50 was 79.4 nM.

With `COC(=O)N1Cc2cc(S(=O)(=O)CC3(C#N)CC3)ccc2C1C(=O)Nc1ccc(C(O)(C(F)(F)F)C(F)(F)F)cc1` (stereo not drawn) [Example 902, Methyl 5-{[(1-cyanocyclopropyl)methyl]sulfonyl}-1-{[4-(1,1,1,3,3,3-hexafluoro-2-hydroxypropan-2-yl)phenyl]carbamoyl}-1,3-dihydro-2H-isoindole-2-carboxylate], the IC50 was 50.1 nM.

Turning to `CC(=O)N1Cc2cc(S(=O)(=O)CC(C)C)ccc2C1C(=O)Nc1ccc(C(O)(C(F)(F)F)C(F)(F)F)cc1` (stereo not drawn) [Example 1001, 2-Acetyl-N-[4-(1,1,1,3,3,3-hexafluoro-2-hydroxypropan-2-yl)phenyl]-5-[(2-methylpropyl)sulfonyl]-2,3-dihydro-1H-isoindole-1-carboxamide], the IC50 is 100 nM.

With `O=C(Nc1ccc(C(O)(C(F)(F)F)C(F)(F)F)cc1)C1NCc2cc(S(=O)(=O)CC3(O)CC3)ccc21` (stereo not drawn) [Example 1100, N-[4-(1,1,1,3,3,3-Hexafluoro-2-hydroxypropan-2-yl)phenyl]-5-{[(1-hydroxycyclopropyl)methyl]sulfonyl}-2,3-dihydro-1H-isoindole-1-carboxamide], the IC50 is 200 nM.

For the compound `CC(=O)N1Cc2cc(S(=O)(=O)CC3(O)CC3)ccc2C1C(=O)Nc1ccc(C(O)(C(F)(F)F)C(F)(F)F)cc1` (stereo not drawn) [Example 1101, 2-Acetyl-N-[4-(1,1,1,3,3,3-hexafluoro-2-hydroxypropan-2-yl)phenyl]-5-{[(1-hydroxycyclopropyl)methyl]sulfonyl}-2,3-dihydro-1H-isoindole-1-carboxamide], the IC50 was 63.1 nM.

In the case of `O=CN1Cc2cc(S(=O)(=O)CC3(O)CC3)ccc2C1C(=O)Nc1ccc(C(O)(C(F)(F)F)C(F)(F)F)cc1` (stereo not drawn) [Example 1102, 2-Formyl-N-[4-(1,1,1,3,3,3-hexafluoro-2-hydroxypropan-2-yl)phenyl]-5-{[(1-hydroxycyclopropyl)methyl]sulfonyl}-2,3-dihydro-1H-isoindole-1-carboxamide], the IC50 was 31.6 nM.

As for `O=C(Nc1ccc(C(O)(C(F)(F)F)C(F)(F)F)cc1)C1c2ccc(S(=O)(=O)CC3(O)CC3)cc2CN1C(=O)CO` (stereo not drawn) [Example 1103, N-[4-(1,1,1,3,3,3-Hexafluoro-2-hydroxypropan-2-yl)phenyl]-2-(hydroxyacetyl)-5-{[(1-hydroxycyclopropyl)methyl]sulfonyl}-2,3-dihydro-1H-isoindole-1-carboxamide], the IC50 is 501 nM.

Take `CC(=O)N1Cc2cc(S(=O)(=O)CC(C)O)ccc2C1C(=O)Nc1ccc(C(O)(C(F)(F)F)C(F)(F)F)cc1` (stereo not drawn) [Example 1200, 2-Acetyl-N-[4-(1,1,1,3,3,3-hexafluoro-2-hydroxypropan-2-yl)phenyl]-5-[(2-hydroxypropyl)sulfonyl]-2,3-dihydro-1H-isoindole-1-carboxamide]: the IC50 was 158 nM.

Consider `O=C(Nc1ccc(C(O)(C(F)(F)F)C(F)(F)F)cc1)C1NCc2cc(S(=O)(=O)CC3(F)CC3)ccc21` (stereo not drawn) [Example 1300, 5-{[(1-Fluorocyclopropyl)methyl]sulfonyl}-N-[4-(1,1,1,3,3,3-hexafluoro-2-hydroxypropan-2-yl)phenyl]-2,3-dihydro-1H-isoindole-1-carboxamide], for which the IC50 was 251 nM.
